Patent publication US20200131156A1, “ARYLSULFONYLPYROLECARBOXAMIDE DERIVATIVES AS Kv3 POTASSIUM CHANNEL ACTIVATORS” (H. Lundbeck A/S, priority 2018, published 2020)

Target: T1, hKv3.1b (Homo sapiens, UniProt P48547)
T1 construct: expressed in transfected cells
T1 sequence (P48547 1-585 isoform P48547-2): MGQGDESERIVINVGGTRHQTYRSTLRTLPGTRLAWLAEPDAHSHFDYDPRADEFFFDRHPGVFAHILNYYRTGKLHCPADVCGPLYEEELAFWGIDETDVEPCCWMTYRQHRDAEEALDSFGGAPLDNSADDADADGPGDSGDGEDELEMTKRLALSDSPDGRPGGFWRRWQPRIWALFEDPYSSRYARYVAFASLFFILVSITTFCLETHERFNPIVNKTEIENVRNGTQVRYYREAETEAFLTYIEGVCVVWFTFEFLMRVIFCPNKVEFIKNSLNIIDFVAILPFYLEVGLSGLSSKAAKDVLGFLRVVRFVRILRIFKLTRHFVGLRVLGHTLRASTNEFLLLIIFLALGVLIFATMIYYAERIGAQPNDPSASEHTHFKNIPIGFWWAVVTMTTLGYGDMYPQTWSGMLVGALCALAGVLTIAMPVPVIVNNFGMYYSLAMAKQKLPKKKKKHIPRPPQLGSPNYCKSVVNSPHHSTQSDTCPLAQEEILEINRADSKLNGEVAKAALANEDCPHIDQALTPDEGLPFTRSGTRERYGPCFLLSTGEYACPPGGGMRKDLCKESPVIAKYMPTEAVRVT
Test: Automated patch clamp (QPatch-16x) on HEK-293 cells stably expressing hKv3.1b
Format: cell-based
Conditions: for ECdelta5 mV: concentration needed to shift the activation threshold 5 mV; for Threshold Shift: maximum absolute hyperpolarizing shift of activation threshold at tested concentrations 0.37-30 μM
In short: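 Whole-cell automated patch clamp, extracellular pH 7.4, 4 mM Na2ATP intracellular; holding −80 mV, 200 ms steps −70 to +10 mV. Five ascending concentrations (0.37–30 μM) per cell, ~3 min each, 0.33% DMSO vehicle. Activation threshold (5% of vehicle peak at 10 mV) shift fitted sigmoidally; ECdelta5 mV read from curve.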

SMILES | ECdelta5 mV [nM] | Threshold Shift [mV]
Cc1ccc(S(=O)(=O)n2ccc(C(=O)NCc3cnc(Cl)cn3)c2)cc1 [Compound 89, N-[(5-chloropyrazin-2-yl)methyl]-1-(4-methylbenzene-1-sulfonyl)-1H-pyrrole-3-carboxamide] | 660 | 23
Cc1cnc(CNC(=O)c2ccn(S(=O)(=O)c3ccc(C(F)(F)F)cc3)c2)cn1 [Compound 91, N-[(5-methylpyrazin-2-yl)methyl]-1-[4-(trifluoromethyl)benzene-1-sulfonyl]-1H-pyrrole-3-carboxamide] | 1800 | 20
Cc1cnc(CNC(=O)c2ccn(S(=O)(=O)c3ccc(C(F)F)cc3)c2)cn1 [Compound 93, 1-[4-(difluoromethyl)benzene-1-sulfonyl]-N-[(5-methylpyrazin-2-yl)methyl]-1H-pyrrole-3-carboxamide] | 1500 | 34
Cc1ccc(S(=O)(=O)n2ccc(C(=S)NCc3cnc(C)cn3)c2)cc1 [Compound 94, 1-(4-methylbenzene-1-sulfonyl)-N-[(5-methylpyrazin-2-yl)methyl]-1H-pyrrole-3-carbothioamide] | 1100 | 19
Cc1cnc(CNC(=O)c2ccn(S(=O)(=O)c3c(C)cc(F)cc3C)c2)cn1 [Compound 99, 1-(4-fluoro-2,6-dimethyl-phenyl)sulfonyl-N-[(5-methylpyrazin-2-yl)methyl]pyrrole-3-carboxamide] | 1900 | 21
Cc1cnc(CNC(=O)c2ccn(S(=O)(=O)c3cc(C)c(F)c(C)c3)c2)cn1 [Compound 100, 1-(4-fluoro-3,5-dimethyl-phenyl)sulfonyl-N-[(5-methylpyrazin-2-yl)methyl]pyrrole-3-carboxamide] | 4300 | 15
Cc1cnc(CNC(=O)c2ccn(S(=O)(=O)c3ccc4c(c3)CCO4)c2)cn1 [Compound 102, 1-(2,3-dihydrobenzofuran-5-ylsulfonyl)-N-[(5-methylpyrazin-2-yl)methyl]pyrrole-3-carboxamide] | 1400 | 32
Cc1cc(C)c(S(=O)(=O)n2ccc(C(=O)NCc3cnc(C)cn3)c2)c(C)c1 [Compound 103, N-[(5-methylpyrazin-2-yl)methyl]-1-(2,4,6-trimethylphenyl)sulfonyl-pyrrole-3-carboxamide] | 720 | 24
CNc1cnc(CNC(=O)c2ccn(S(=O)(=O)c3ccc(OC(F)F)cc3)c2)cn1 [Compound 107, 1-[4-(difluoromethoxy)benzene-1-sulfonyl]-N-{[5-(methylamino)pyrazin-2-yl]methyl}-1H-pyrrole-3-carboxamide] | 1800 | 36
Cc1ccc(S(=O)(=O)n2ccc(C(=O)NCc3cnn(C)n3)c2)cc1 [Compound 109, 1-(4-methylbenzene-1-sulfonyl)-N-[(2-methyl-2H-1,2,3-triazol-4-yl)methyl]-1H-pyrrole-3-carboxamide] | 1200 | 29
Cc1cnc(CNC(=O)c2ccn(S(=O)(=O)c3ccccc3)c2)c(C)n1 [Compound 111, 1-(benzenesulfonyl)-N-[(3,5-dimethylpyrazin-2-yl)methyl]-1H-pyrrole-3-carboxamide] | 2900 | 21
COc1ncc(CNC(=O)c2ccn(S(=O)(=O)c3ccc(OC(F)F)cc3)c2)cn1 [Compound 112, 1-[4-(difluoromethoxy)benzene-1-sulfonyl]-N-[(2-methoxypyrimidin-5-yl)methyl]-1H-pyrrole-3-carboxamide] | 4100 | 17
Cc1cnc(CNC(=O)c2ccn(S(=O)(=O)c3ccccc3)c2)c(Cl)n1 [Compound 113, 1-(benzenesulfonyl)-N-[(3-chloro-5-methylpyrazin-2-yl)methyl]-1H-pyrrole-3-carboxamide] | 3500 | 14
Cc1ccc(S(=O)(=O)n2ccc(C(=O)NCc3cnc(C)s3)c2)cc1 [Compound 114, 1-(4-methylbenzene-1-sulfonyl)-N-[(2-methyl-1,3-thiazol-5-yl)methyl]-1H-pyrrole-3-carboxamide] | 1600 | 15
Cc1ccc(S(=O)(=O)n2ccc(C(=O)NCc3nnc(C)s3)c2)cc1 [Compound 115, 1-(4-methylbenzene-1-sulfonyl)-N-[(5-methyl-1,3,4-thiadiazol-2-yl)methyl]-1H-pyrrole-3-carboxamide] | 2800 | 17
Cc1ccc(S(=O)(=O)n2ccc(C(=O)NCc3cc(C)n[nH]3)c2)cc1 [Compound 116, 1-(4-methylbenzene-1-sulfonyl)-N-[(3-methyl-1H-pyrazol-5-yl)methyl]-1H-pyrrole-3-carboxamide] | 2600 | 25
COc1ccc(S(=O)(=O)n2ccc(C(=O)NCc3ccn(C)n3)c2)c(Cl)c1 [Compound 117, 1-(2-chloro-4-methoxybenzene-1-sulfonyl)-N-[(1-methyl-1H-pyrazol-3-yl)methyl]-1H-pyrrole-3-carboxamide] | 1500 | 21
COc1ccc(S(=O)(=O)n2ccc(C(=O)NCc3ncc(C)cn3)c2)c(Cl)c1 [Compound 118, 1-(2-chloro-4-methoxybenzene-1-sulfonyl)-N-[(5-methylpyrimidin-2-yl)methyl]-1H-pyrrole-3-carboxamide] | 2500 | 20

Second part, the compound after the results:

ECdelta5 mV [nM] | Threshold Shift [mV] | SMILES
3400 | 12 | Cc1cnc(CNC(=O)c2ccn(S(=O)(=O)c3ccc(F)c(Cl)c3)c2)cn1 [Compound 92, 1-(3-chloro-4-fluorobenzene-1-sulfonyl)-N-[(5-methylpyrazin-2-yl)methyl]-1H-pyrrole-3-carboxamide]
1100 | 24 | Cc1ccc(S(=O)(=O)n2ccc(C(=O)NCc3cnc(C)cn3)c2)c(F)c1 [Compound 95, 1-(2-fluoro-4-methyl-phenyl)sulfonyl-N-[(5-methylpyrazin-2-yl)methyl]pyrrole-3-carboxamide]
1300 | 35 | COc1ccc(S(=O)(=O)n2ccc(C(=O)NCc3cnc(C)cn3)c2)c(F)c1 [Compound 96, 1-(2-fluoro-4-methoxy-phenyl)sulfonyl-N-[(5-methylpyrazin-2-yl)methyl]pyrrole-3-carboxamide]
3200 | 18 | COc1ccc(S(=O)(=O)n2ccc(C(=O)NCc3cnc(C)cn3)c2)cc1F [Compound 97, 1-(3-fluoro-4-methoxy-phenyl)sulfonyl-N-[(5-methylpyrazin-2-yl)methyl]pyrrole-3-carboxamide]
710 | 36 | COc1ccc(S(=O)(=O)n2ccc(C(=O)NCc3cnc(C)cn3)c2)c(C)c1 [Compound 98, 1-(4-methoxy-2-methyl-phenyl)sulfonyl-N-[(5-methylpyrazin-2-yl)methyl]pyrrole-3-carboxamide]
2000 | 23 | Cc1cnc(CNC(=O)c2ccn(S(=O)(=O)c3ccc(F)c(C)c3)c2)cn1 [Compound 101, 1-(4-fluoro-3-methyl-phenyl)sulfonyl-N-[(5-methylpyrazin-2-yl)methyl]pyrrole-3-carboxamide]
1000 | 31 | COc1ccc(S(=O)(=O)n2ccc(C(=O)NCc3cnc(C)cn3)c2)c(Cl)c1 [Compound 104, 1-(2-chloro-4-methoxy-phenyl)sulfonyl-N-[(5-methylpyrazin-2-yl)methyl]pyrrole-3-carboxamide]
1200 | 24 | COc1ccc(S(=O)(=O)n2ccc(C(=O)NCc3cnc(C)cn3)c2)c(Br)c1 [Compound 105, 1-(2-bromo-4-methoxy-phenyl)sulfonyl-N-[(5-methylpyrazin-2-yl)methyl]pyrrole-3-carboxamide]
550 | 42 | CNc1cnc(CNC(=O)c2ccn(S(=O)(=O)c3ccc(C)cc3F)c2)cn1 [Compound 106, 1-(2-fluoro-4-methylbenzene-1-sulfonyl)-N-{[5-(methylamino)pyrazin-2-yl]methyl}-1H-pyrrole-3-carboxamide]
1300 | 24 | COc1ncc(CNC(=O)c2ccn(S(=O)(=O)c3ccc(C)cc3F)c2)cn1 [Compound 110, 1-(2-fluoro-4-methylbenzene-1-sulfonyl)-N-[(2-methoxypyrimidin-5-yl)methyl]-1H-pyrrole-3-carboxamide]
